Patent publication US20250375435A1, “COMPOUNDS FOR TREATING INFECTIONS” (Ohio State Innovation Foundation, priority 2022, published 2025)

Tested on: Salmonella
Test: Single-infection mouse model with probiotic strain added 1:1 to wild-type or fraB mutant Salmonella
Assay type: in vivo, streptomycin-treated Swiss Webster mice
Conditions: presence or absence of probiotic or exogenous F-Asn, day 4 post-infection
Experimental: A quadruple mutant designated ASD203 (ASPII ASPI2 AfraRBDAE4 AasnB80:kan) was evaluated for use as a probiotic in combination with FraB inhibitors. This is a strain of Salmonella lacking SPI1 and SPI2 so that it cannot induce inflammation. Additionally, this strain cannot consume F-Asn due to a deletion of the entire fra island (fraR-fraBDAE). The ansB gene was also deleted as this asparaginase is capable of converting F-Asn to F-Asp. The addition of this probiotic should provide an inflammation resistant competitor to Salmonella for all nutrients except F-Asn, effectively forcing the use of F-Asn as a nutrient. […]
Mouse modeling experiments—For competition experiments, a 1:1 mixture of two different bacterial strains were inoculated intragastrically (i.g.) and then recovered from ceca to determine the competitive index (CI) of the two strains. […] CI was determined by plating on media selective for WT (LB cam) and mutant (LB kan). For the competitions with the fraB F214A mutant which is not marked, CI was determined by screening 52 individual colonies recovered from XLD plates for antibiotic resistance by patching on LB plates containing the appropriate antibiotic, thus the limit of detection on these experiments is less than two logs. […] CFU enumeration was determined by plating on media selective for WT (LB cam) and the mutant (LB kan). […]

fructose-asparagine [F-Asn]
numbers of fraB mutant bacteria recovered: not significantly different
